Patent US11130766B2, “Deuterated thienopiperidine derivatives, manufacturing method, and application thereof” (JIANGSU TASLY DIYI PHARMACEUTICAL CO., LTD., priority 2015, dated 2021)
Read-outs that look alike come from different tables or passages of the source. Marks after values point to notes of the source that are not given here.

Columns and labels:
[1] = tested on: ADP induced platelet aggregation; experiment: ADP induced platelet aggregation, maximum aggregation rate after administration to rats; format: in vivo, Wistar male rats; parameters: unit not given here; conditions: rat, in vivo, 3 mg/kg
Protocol: Addition of small dose of ADP (concentration less than 0.9 μmol/L) into the platelet suspension could lead to rapid platelet aggregation, followed by quick disaggregation; if moderate dose of ADP (about 1.0 μmol/L) was added, then the second irreversible aggregation phase appeared not long after the end of the first aggregation phase and the disaggregation. The maximum aggregation rate of the irreversible aggregation phase was used to evaluate the effect of the test samples on the function of blood coagulation.
Animals: Wistar male rats, weighing 230-250 g, were purchased from Vital River Laboratory Animal Technology Co., Ltd.
Reagent: ADP, Sigma Corporation.
Test samples: 16 test samples were provided by the Tasly Group; referred to China patent application 201310428052.4 for manufacturing method of TSC-1˜4 and TSC-6˜9.
Dose of administration: the test samples were suspended with 0.25% CMC, administered 3 mg/kg weight, volume of administration: 2 mL.
2 Hours after administration, the rats were anesthetized with pentobarbital sodium, and blood was drawn from the abdominal aorta, anticoagulated with sodium citrate with a ratio of 1:9, and centrifuged to obtain the platelet-rich plasma and platelet-poor plasma, with the mixed ratio of the platelet-poor plasma to platelet-rich plasma=3:1.

esterase = conditions: for sample test results (concentration) Mean / sample test results (concentration) Num. 1 / sample test results (concentration) Num. 2 / sample test results (concentration) Num. 3: rat whole blood, 37° C., 30 μg/mL
Protocol: The hydrolysis rates of formula TSD-6 and clopidogrel bisulfate in the rat whole blood were determined by employing the in vitro incubation method.
3 mL of the rat fresh whole blood was taken and placed in a glass test tube. 30 μg/mL of formula TSD-6 and clopidogrel bisulfate (prepared with saline) were added, with 3 parallel tests for each group. The test tubes were shocked at a constant temperature of 37° C., 100 μL of the mixture was taken out at fixed time points of 10 min, 20 min, 30 min, 40 min, 50 min, 60 min, 70 min, 80 min, 90 min, 100 min, 110 min, and 120 min, into which 900 μL of methanol was added to stop the reaction immediately, then 100 μL methanol/water (1:1, v/v) and 100 μL internal standard (diazepam, 100 ng/mL) were added sequentially. The mixture was centrifuged at 13000 rpm at low temperature for 10 min, the supernatant was transferred into another EP tube, and 20 μL of the supernatant was taken for sample injection.

Rat Tail Bleeding Model = tested on: Rat Tail Bleeding Model
Protocol: genus, strain SD rat, • Provider: Slac • Weight: 250-350 g • Sex: male • Animal number: 30
Experimental Method: • The animals were allowed adapt to the environment after arrival for 1 week and fasted for 16 hours prior to the experiment. • The tail bleeding time started to be recorded 2 h after oral administration of the test compounds and 4 h after oral administration of clopidogrel. • The rats were anesthetized with pentobarbital sodium (50 mg/kg, ip) 10 min prior to the recording of the tail bleeding time, after the rat was completely anesthetized and reaching the detection time, the tail was cut at 1.3 mm from the rat tail-tip with a scissor and perpendicularly immerged into a saline at 37° C. Timing recording was not started until the blood flow appeared. • The timing recording was stopped when the bleeding time interval was longer than 20 seconds. The maximum observation time for the blood flow was set for 40 minutes. If it was longer than 40 minutes, the timing recording was stopped and the time was recorded as 40 minutes.

[2] = tested on: Rat Arteriovenous Thrombus Loop Model
Source text: genus, strain: SD rat, • Provider: Slac • Weight: 250-350 g • Sex: male • Animal number: 30
Apparatus and Materials • Swab, dry tampon, alcohol pad, anerdian tampon. • Surgical scissor, ophthalmic forceps, hemostatic forceps, microsurgical scissor, microsurgical forceps, artery clamps. • 3-0 surgical suture, thick PE tube (I.D.*O.D.=1.14 mm*1.63 mm, 8 cm long), think PE tube (I.D.*O.D.=0.72 mm*1.22 mm, 6 cm long). • Surgical board, binding rope, timer, precise electronic balance, weighing paper. • Syringe, normal saline.
7. Experimental Method • After arrival, the animals were let adapt to the environment for 1 week and fasted for 16 hours prior to the test. • The arteriovenous blood loop circulation was started 2 h after oral administration of the test compounds and 4 h after oral administration of clopidogrel. • The rats were anesthetized with pentobarbital sodium (50 mg/kg, ip) 15 min before the arteriovenous blood loop circulation was started. • The left external jugular vein and the right carotid artery were separated and inserted with thin PE tubes respectively. • Two PE tubes were connected with another thick PE tube with a length of 8 cm to form a circulation passage. There's a 6 cm surgical suture (3-0) in the thick PE tube. • 15 min after the circulation passage was opened, the blood flow was blocked, the filament was taken out and weighed after the blood was sucked out. The thrombus weight was obtained after subtraction of the weight of the filament itself.

In the case of [2H]C([2H])([2H])OC(=O)[C@H](c1ccccc1Cl)N1CCc2sc(OP(=O)(O)O)cc2C1 [TSD-6], the “Maximum Platelet Aggregation Rate” value [1] is reported as 17.4 ± 5.13, the “hydrolysis rate in the rat whole blood” value (esterase; compared with clopidogrel, FIG. 2) is reported as “significantly slower than that of clopidogrel” and the “sample test results (concentration) Mean” value (esterase; 10 min) is reported as 389.7. The “sample test results (concentration) Num. 1” value (esterase; 10 min) was 486, the “sample test results (concentration) Num. 2” value (esterase; 10 min) was 287 and the “sample test results (concentration) Num. 3” value (esterase; 10 min) was 396. For the same compound, the “sample test results (concentration) Mean” value (esterase; 20 min) was 315.3, the “sample test results (concentration) Num. 1” value (esterase; 20 min) was 306 and the “sample test results (concentration) Num. 2” value (esterase; 20 min) was 345. The “sample test results (concentration) Num. 3” value (esterase; 20 min) was 295, the “sample test results (concentration) Mean” value (esterase; 30 min) was 244.3 and the “sample test results (concentration) Num. 1” value (esterase; 30 min) was 246. For the same compound, the “sample test results (concentration) Num. 2” value (esterase; 30 min) was 223, the “sample test results (concentration) Num. 3” value (esterase; 30 min) was 264 and the “sample test results (concentration) Mean” value (esterase; 40 min) was 217.7. For the same compound, the “sample test results (concentration) Num. 1” value (esterase; 40 min) was 232, the “sample test results (concentration) Num. 2” value (esterase; 40 min) was 213 and the “sample test results (concentration) Num. 3” value (esterase; 40 min) was 208. For the same compound, the “sample test results (concentration) Mean” value (esterase; 50 min) was 172.0, the “sample test results (concentration) Num. 1” value (esterase; 50 min) was 196 and the “sample test results (concentration) Num. 2” value (esterase; 50 min) was 153. The “sample test results (concentration) Num. 3” value (esterase; 50 min) was 167, the “sample test results (concentration) Mean” value (esterase; 60 min) was 132.3 and the “sample test results (concentration) Num. 1” value (esterase; 60 min) was 115. For the same compound, the “sample test results (concentration) Num. 2” value (esterase; 60 min) was 134, the “sample test results (concentration) Num. 3” value (esterase; 60 min) was 148 and the “sample test results (concentration) Mean” value (esterase; 90 min) was 97.50. For the same compound, the “sample test results (concentration) Num. 1” value (esterase; 90 min) was 85.3, the “sample test results (concentration) Num. 2” value (esterase; 90 min) was 112 and the “sample test results (concentration) Num. 3” value (esterase; 90 min) was 95.2. The “sample test results (concentration) Mean” value (esterase; 100 min) was 72.57, the “sample test results (concentration) Num. 1” value (esterase; 100 min) was 84.7 and the “sample test results (concentration) Num. 2” value (esterase; 100 min) was 71.8. For the same compound, the “sample test results (concentration) Num. 3” value (esterase; 100 min) was 61.2, the “sample test results (concentration) Mean” value (esterase; 110 min) was 54.63 and the “sample test results (concentration) Num. 1” value (esterase; 110 min) was 48.1. For the same compound, the “sample test results (concentration) Num. 2” value (esterase; 110 min) was 59.1, the “sample test results (concentration) Num. 3” value (esterase; 110 min) was 56.7 and the “sample test results (concentration) Mean” value (esterase; 120 min) was 25.83. The “sample test results (concentration) Num. 1” value (esterase; 120 min) was 24.5, the “sample test results (concentration) Num. 2” value (esterase; 120 min) was 28.4 and the “sample test results (concentration) Num. 3” value (esterase; 120 min) was 24.6. The “Tail Bleeding Time (s)” value (Rat Tail Bleeding Model; SD rat, 1.0 mg/kg oral gavage, 2 h after administration) was 1331* s, the “anticoagulant effect (tail bleeding time)” value (Rat Tail Bleeding Model; rat tail bleeding model, 1 mg/kg oral) was “much better than that of the non-deuterated compound TSC-6 and analog I-1” and the “Thrombus (mg)” value ([2]; SD rat, 1.0 mg/kg oral gavage, 2 h after administration, 15 min circulation) was 18.4* mg. The “weight of the thrombus formed” value ([2]; rat arteriovenous thrombus loop model, 1 mg/kg oral) was “much lower than that of the non-deuterated compound TSC-6 and analog I-1”.
